Assays:
Assay in all cases: Test B pre-/postemergence
Assay type in all cases: in vivo
Set-up in all cases: key: 0 is no effect; 10 is complete control
[1] = tested on: pigweed (Amaranthus retroflexus)
Procedure, shortened: (§1)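 Seeds were planted and sprayed preemergence, while plants at 2 to 18 cm (1- to 4-leaf stage) were sprayed postemergence at the same time, with test chemical in a non-phytotoxic solvent mixture containing surfactant. After twelve to sixteen days in a greenhouse, injury was rated visually against untreated controls on a 0–10 scale.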

soybean (Glycine max) = tested on: soybean (Glycine max)
Procedure, shortened: as §1

rape (Brassica napus) = tested on: rape (Brassica napus)
Procedure, shortened: as §1

[2] = tested on: bedstraw (Galium aparine)
Procedure, shortened: as §1

[3] = tested on: blackgrass (Alopecurus myosuroides)
Procedure, shortened: as §1

[4] = tested on: wheat (Triticum aestivum)
Procedure, shortened: as §1

[5] = tested on: momingglory (Ipomoea hederacea)
Procedure, shortened: as §1

corn (Zea mays) = tested on: corn (Zea mays)
Procedure, shortened: as §1

wild oat (Avena fatua) = tested on: wild oat (Avena fatua)
Procedure, shortened: as §1

[6] = tested on: crabgrass (Digitaria sanguinalis)
Procedure, shortened: as §1

[7] = tested on: cocklebur (Xanthium strumarium)
Procedure, shortened: as §1

[8] = tested on: sugar beet (Beta vulgaris)
Procedure, shortened: as §1

[9] = tested on: velvetleaf (Abutilon theophrasti)
Procedure, shortened: as §1

[10] = tested on: broadleaf signalgrass (Brachiaria decumbens)
Procedure, shortened: as §1

[11] = Preemergence, Rate 62 g/ha, scale of 0 to 10

For `Cc1cnc(-c2ccc(C(F)(F)F)cc2)nc1Cn1cc(Br)cn1` [Compound 54], the “Plant response rating, Redroot pigweed” value [1, 11] was 1, the “Redroot pigweed plant response rating” value ([1]; Rate 62 g/ha, Postemergence) was 4 and the “Redroot pigweed plant response rating” value ([1]; Rate 125 g/ha, Postemergence) was 5. The “Plant response rating, Redroot pigweed” value ([1]; Rate 125 g/ha, Preemergence) was 2, the “Plant response rating, Redroot pigweed” value ([1]; Rate 250 g/ha, Postemergence) was 6 and the “Plant response rating, Redroot pigweed” value ([1]; Rate 250 g/ha, Preemergence) was 7. The “Plant response rating, Redroot pigweed” value ([1]; Rate 500 g/ha, Postemergence) was 7, the “Plant response rating, Redroot pigweed” value ([1]; Rate 500 g/ha, Preemergence) was 9 and the “Plant response rating, Soybean” value (soybean (Glycine max); [11]) was 0. The “Soybean plant response rating” value (soybean (Glycine max); Rate 62 g/ha, Postemergence) was 0, the “Soybean plant response rating” value (soybean (Glycine max); Rate 125 g/ha, Postemergence) was 3 and the “Plant response rating, Soybean” value (soybean (Glycine max); Rate 125 g/ha, Preemergence) was 0. The “Plant response rating, Soybean” value (soybean (Glycine max); Rate 250 g/ha, Postemergence) was 4, the “Plant response rating, Soybean” value (soybean (Glycine max); Rate 250 g/ha, Preemergence) was 0 and the “Plant response rating, Soybean” value (soybean (Glycine max); Rate 500 g/ha, Postemergence) was 4. The “Plant response rating, Soybean” value (soybean (Glycine max); Rate 500 g/ha, Preemergence) was 0, the “Plant response rating, Rape” value (rape (Brassica napus); [11]) was 0 and the “Rape plant response rating” value (rape (Brassica napus); Rate 62 g/ha, Postemergence) was 7. For the same compound, the “Rape plant response rating” value (rape (Brassica napus); Rate 125 g/ha, Postemergence) was 8, the “Plant response rating, Rape” value (rape (Brassica napus); Rate 125 g/ha, Preemergence) was 0 and the “Plant response rating, Rape” value (rape (Brassica napus); Rate 250 g/ha, Postemergence) was 9. For the same compound, the “Plant response rating, Rape” value (rape (Brassica napus); Rate 250 g/ha, Preemergence) was 3, the “Plant response rating, Rape” value (rape (Brassica napus); Rate 500 g/ha, Postemergence) was 9 and the “Plant response rating, Rape” value (rape (Brassica napus); Rate 500 g/ha, Preemergence) was 3. The “Plant response rating, Bedstraw” value [2, 11] was 0, the “Bedstraw plant response rating” value ([2]; Rate 62 g/ha, Postemergence) was 3 and the “Bedstraw plant response rating” value ([2]; Rate 125 g/ha, Postemergence) was 4. The “Plant response rating, Bedstraw” value ([2]; Rate 125 g/ha, Preemergence) was 0, the “Plant response rating, Bedstraw” value ([2]; Rate 250 g/ha, Postemergence) was 7 and the “Plant response rating, Bedstraw” value ([2]; Rate 250 g/ha, Preemergence) was 1. The “Plant response rating, Bedstraw” value ([2]; Rate 500 g/ha, Postemergence) was 9, the “Plant response rating, Bedstraw” value ([2]; Rate 500 g/ha, Preemergence) was 4 and the “Plant response rating, Blackgrass” value [3, 11] was 0. The “Blackgrass plant response rating” value ([3]; Rate 62 g/ha, Postemergence) was 1, the “Blackgrass plant response rating” value ([3]; Rate 125 g/ha, Postemergence) was 1 and the “Plant response rating, Blackgrass” value ([3]; Rate 125 g/ha, Preemergence) was 1. The “Plant response rating, Blackgrass” value ([3]; Rate 250 g/ha, Postemergence) was 2, the “Plant response rating, Blackgrass” value ([3]; Rate 250 g/ha, Preemergence) was 3 and the “Plant response rating, Blackgrass” value ([3]; Rate 500 g/ha, Postemergence) was 3. The “Plant response rating, Blackgrass” value ([3]; Rate 500 g/ha, Preemergence) was 4, the “Plant response rating, Wheat” value [4, 11] was 0 and the “Wheat plant response rating” value ([4]; Rate 62 g/ha, Postemergence) was 0. For the same compound, the “Wheat plant response rating” value ([4]; Rate 125 g/ha, Postemergence) was 2, the “Plant response rating, Wheat” value ([4]; Rate 125 g/ha, Preemergence) was 0 and the “Plant response rating, Wheat” value ([4]; Rate 250 g/ha, Postemergence) was 2. For the same compound, the “Plant response rating, Wheat” value ([4]; Rate 250 g/ha, Preemergence) was 0, the “Plant response rating, Wheat” value ([4]; Rate 500 g/ha, Postemergence) was 2 and the “Plant response rating, Wheat” value ([4]; Rate 500 g/ha, Preemergence) was 1. The “Plant response rating, Morningglory” value [5, 11] was 0, the “Morningglory plant response rating” value ([5]; Rate 62 g/ha, Postemergence) was 2 and the “Morningglory plant response rating” value ([5]; Rate 125 g/ha, Postemergence) was 3. For the same compound, the “Plant response rating, Morningglory” value ([5]; Rate 125 g/ha, Preemergence) was 1, the “Plant response rating, Morningglory” value ([5]; Rate 250 g/ha, Postemergence) was 3 and the “Plant response rating, Morningglory” value ([5]; Rate 250 g/ha, Preemergence) was 2. For the same compound, the “Plant response rating, Morningglory” value ([5]; Rate 500 g/ha, Postemergence) was 10, the “Plant response rating, Morningglory” value ([5]; Rate 500 g/ha, Preemergence) was 2 and the “Plant response rating, Corn” value (corn (Zea mays); [11]) was 0. For the same compound, the “Corn plant response rating” value (corn (Zea mays); Rate 62 g/ha, Postemergence) was 2, the “Corn plant response rating” value (corn (Zea mays); Rate 125 g/ha, Postemergence) was 2 and the “Plant response rating, Corn” value (corn (Zea mays); Rate 125 g/ha, Preemergence) was 0. The “Plant response rating, Corn” value (corn (Zea mays); Rate 250 g/ha, Postemergence) was 3, the “Plant response rating, Corn” value (corn (Zea mays); Rate 250 g/ha, Preemergence) was 1 and the “Plant response rating, Corn” value (corn (Zea mays); Rate 500 g/ha, Postemergence) was 3. For the same compound, the “Plant response rating, Corn” value (corn (Zea mays); Rate 500 g/ha, Preemergence) was 1, the “Plant response rating, Wild oats” value (wild oat (Avena fatua); [11]) was 0 and the “Wild oats plant response rating” value (wild oat (Avena fatua); Rate 62 g/ha, Postemergence) was 1. The “Wild oats plant response rating” value (wild oat (Avena fatua); Rate 125 g/ha, Postemergence) was 2, the “Plant response rating, Wild oats” value (wild oat (Avena fatua); Rate 125 g/ha, Preemergence) was 1 and the “Plant response rating, Wild oats” value (wild oat (Avena fatua); Rate 250 g/ha, Postemergence) was 3. The “Plant response rating, Wild oats” value (wild oat (Avena fatua); Rate 250 g/ha, Preemergence) was 3, the “Plant response rating, Wild oats” value (wild oat (Avena fatua); Rate 500 g/ha, Postemergence) was 3 and the “Plant response rating, Wild oats” value (wild oat (Avena fatua); Rate 500 g/ha, Preemergence) was 4. For the same compound, the “Plant response rating, Crabgrass” value [6, 11] was 0, the “Crabgrass plant response rating” value ([6]; Rate 62 g/ha, Postemergence) was 2 and the “Crabgrass plant response rating” value ([6]; Rate 125 g/ha, Postemergence) was 4. The “Plant response rating, Crabgrass” value ([6]; Rate 125 g/ha, Preemergence) was 0, the “Plant response rating, Crabgrass” value ([6]; Rate 250 g/ha, Postemergence) was 5 and the “Plant response rating, Crabgrass” value ([6]; Rate 250 g/ha, Preemergence) was 3. For the same compound, the “Plant response rating, Crabgrass” value ([6]; Rate 500 g/ha, Postemergence) was 5, the “Plant response rating, Crabgrass” value ([6]; Rate 500 g/ha, Preemergence) was 8 and the “Cocklebur plant response rating” value ([7]; Rate 62 g/ha, Postemergence) was 3. For the same compound, the “Cocklebur plant response rating” value ([7]; Rate 125 g/ha, Postemergence) was 3, the “Plant response rating, Cocklebur” value ([7]; Rate 125 g/ha, Preemergence) was 0 and the “Plant response rating, Cocklebur” value ([7]; Rate 250 g/ha, Postemergence) was 7. The “Plant response rating, Cocklebur” value ([7]; Rate 250 g/ha, Preemergence) was 0, the “Plant response rating, Cocklebur” value ([7]; Rate 500 g/ha, Postemergence) was 9 and the “Plant response rating, Cocklebur” value ([7]; Rate 500 g/ha, Preemergence) was 0. For the same compound, the “Plant response rating, Sugarbeets” value [8, 11] was 0, the “Sugarbeets plant response rating” value ([8]; Rate 62 g/ha, Postemergence) was 6 and the “Sugarbeets plant response rating” value ([8]; Rate 125 g/ha, Postemergence) was 7. The “Plant response rating, Sugarbeets” value ([8]; Rate 125 g/ha, Preemergence) was 1, the “Plant response rating, Sugarbeets” value ([8]; Rate 250 g/ha, Postemergence) was 9 and the “Plant response rating, Sugarbeets” value ([8]; Rate 250 g/ha, Preemergence) was 7. For the same compound, the “Plant response rating, Sugarbeets” value ([8]; Rate 500 g/ha, Postemergence) was 9, the “Plant response rating, Sugarbeets” value ([8]; Rate 500 g/ha, Preemergence) was 9 and the “Plant response rating, Velvetleaf” value [9, 11] was 0. The “Velvetleaf plant response rating” value ([9]; Rate 62 g/ha, Postemergence) was 2, the “Velvetleaf plant response rating” value ([9]; Rate 125 g/ha, Postemergence) was 2 and the “Plant response rating, Velvetleaf” value ([9]; Rate 125 g/ha, Preemergence) was 0. The “Plant response rating, Velvetleaf” value ([9]; Rate 250 g/ha, Postemergence) was 3, the “Plant response rating, Velvetleaf” value ([9]; Rate 250 g/ha, Preemergence) was 1 and the “Plant response rating, Velvetleaf” value ([9]; Rate 500 g/ha, Postemergence) was 3. The “Plant response rating, Velvetleaf” value ([9]; Rate 500 g/ha, Preemergence) was 1, the “B. signalgrass plant response rating” value ([10]; Rate 62 g/ha, Postemergence) was 3 and the “B. signalgrass plant response rating” value ([10]; Rate 62 g/ha, Preemergence) was 0. For the same compound, the “B. signalgrass plant response rating” value ([10]; Rate 125 g/ha, Postemergence) was 3, the “Plant response rating, B. signalgrass” value ([10]; Rate 125 g/ha, Preemergence) was 1 and the “Plant response rating, B. signalgrass” value ([10]; Rate 250 g/ha, Postemergence) was 4. For the same compound, the “Plant response rating, B. signalgrass” value ([10]; Rate 250 g/ha, Preemergence) was 3, the “Plant response rating, B. signalgrass” value ([10]; Rate 500 g/ha, Postemergence) was 5 and the “Plant response rating, B. signalgrass” value ([10]; Rate 500 g/ha, Preemergence) was 6.

— patent publication US6525001B1, “Substituted pyrimidine and pyridine herbicides” (Mid-American Commercialization Corporation, priority 1997, dated 2003)
